Patent US11905231B1, “Solid forms, salts and polymorphs of anti-fibrotic compounds” (Certa Therapeutics Pty Ltd, priority 2023, dated 2024)
In brackets after ≈: the same amount, converted by molar mass. Read-outs that look alike come from different tables or passages of the source.

Legend:
[1] = Oral pharmacokinetic study in Sprague-Dawley rats; conditions: rat; for F (fraction absorbed, bioavailability): based on AUCInf
Experimental: Bioavailability is determined by the equation AUC=F·D/CLT, wherein AUC is the area under the plot of plasma concentration, F is the absolute bioavailability, D is the dose, and CLT is the total clearance.
The rats received a single oral dose of 20 mg/kg body weight (b.w.). The doses were prepared as a 2.0 mg/mL suspension in a vehicle of 20 mM Na2HPO4 buffer containing 5% (v/v) DMSO, 0.4% (v/v) 1M NaOH and 0.4% (v/v) Tween 80 and a dose volume of 10 mL/kg b.w.
Pharmacokinetic analysis was performed on the average plasma concentration for each time point.

[2] = Thermogravimetric Analysis (TGA) weight loss; type: physicochemical; conditions: for Total weight loss by TGA: from r.t. to 350° C. (or to decomposition if lower); for Weight loss (TGA): when heated from about 25° C. to about 120° C.
physchem = conditions: 37 °C, thermodynamic from solid
Experimental: The term “FaSSIF media” refers to Fasted State Simulated Intestinal Fluid media prepared using FaSSIF powder and buffer concentrate obtained from the commercial source Biorelevant (London, UK, biorelevant.com). The FaSSIF powder contains sodium taurocholate, lecithin, sodium chloride, monobasic sodium phosphate and sodium hydroxide. The FaSSIF media is prepared as described at https://biorelevant.com/learning_center/what-is-fassif/. Briefly the pH6.5 buffer containing 0.42 g of NaOH, 3.95 g of NaH2PO4·H2O and 6.19 g of NaCl was dissolved in 0.9 L of purified water and the pH of the solution was adjusted to 6.5 using sodium hydroxide 1N or hydrochloric acid 1N and made up to volume (1 L) with purified water at room temperature. Dissolve 2.24 g of the FaSSIF powder in 0.5 L of the pH6.5 buffer, stirring until the powder is completely dissolved, and then make up to volume (1 L) with buffer at room temperature.
The samples were stirred using a magnetic stirrer at 37° C. […] The samples were filtered via centrifugation (12,000 rpm, 5 min). The supernatant was diluted (2×) with HPLC grade solvent and analyzed by HPLC.
HPLC gradient was as follows:
The pH 1.2, pH 4.5, and pH 6.8 media were prepared as standard aqueous buffered solutions following USP <39>.
As used herein, the term “FaSSIF media” means Fasted Stated Simulated Intestinal Fluid media prepared according to the method known in the art.

[3] = Dynamic Vapor Sorption (DVS) hygroscopicity; conditions: at 80% RH, 25° C., measured during 0% RH to 95% RH increase
Description: The change in water content is recited as a % change in mass of the starting sample and all such water sorption (DVS) values recited herein will be understood to explicitly include numerical values within a +/−0.2% variance.
The humidity is held constant at 30% RH until the mass change of the sample reaches equilibrium, as determined by the rate of change of weight being 0.01%/minute or less. The humidity is then changed to the next step value and the consequent mass change measured, and so on.
The hygroscopicity values recited herein refer to total water gain since the start of the experiment only and so may not necessarily be equivalent to the actual total water content of the sample.

[4] = single oral dose 20 mg/kg, 0.5 h post dose
[5] = single oral dose 20 mg/kg, 1 h post dose
[6] = single oral dose 20 mg/kg, 2 h post dose
[7] = single oral dose 20 mg/kg, 4 h post dose
[8] = single oral dose 20 mg/kg, 8 h post dose
[9] = single oral dose 20 mg/kg, 24 h post dose
[10] = single oral dose 20 mg/kg, plasma
[11] = single oral dose 20 mg/kg, plasma, mean
[12] = single oral dose 20 mg/kg, plasma, extrapolated area under the curve
[13] = Sprague-Dawley, in vivo, po, 20 mg/kg
[14] = FaSSIF (pH 7.5), pH 7.5, fassif
[15] = FeSSIF (pH 7.8), pH 7.8, fessif
[16] = pH 1.2 aqueous buffer, pH 1.2, simulated gastric fluid

C#CCOc1ccc(/C=C/C(=O)Nc2ccccc2C(=O)O)cc1OC.N [Ammonium salt]
Maximum plasma concentration (Cmax) compared to the other tested compounds ([1]; single oral dose 20 mg/kg): highest maximum plasma concentration | Mean concentration (plasma) [1, 4]: 32700 ng/mL | Mean concentration (plasma) [1, 5]: 44033 ng/mL | Mean concentration (plasma) [1, 6]: 35033 ng/mL | Mean concentration (plasma) [1, 7]: 20833 ng/mL | Mean concentration (plasma) [1, 8]: 14400 ng/mL | Mean concentration (plasma) [1, 9]: 575 ng/mL | AUCExtr [1, 10]: 0.932% | AUClast [1, 11]: 313.832 µg·h/mL | Cmax [1, 11]: 44033 ng/mL | t1/2 [1, 11]: 3.62 h | tmax [1, 11]: 1.00 h | AUCInf [1, 12]: 317.034 µg·h/mL | F (fraction absorbed, bioavailability) ([1]; single oral dose 20 mg/kg): 64% | Weight loss by TGA ([2]; from 0° C. to 100° C.): 7.07% from 0 °C to | Weight loss by TGA ([2]; from 100° C. to 170° C.): 4.48% from 100 °C to | Weight loss by TGA ([2]; from r.t. to 120° C.): 8.94% from r.t. to | Total weight loss by TGA [2]: 11.55% total weight

C#CCOc1ccc(/C=C/C(=O)Nc2ccccc2C(=O)O)cc1OC [Free form]
AUCExtr [1, 13]: 2.10% | AUCInf [1, 13]: 170.145 µg·h/mL | AUClast [1, 13]: 166.522 µg·h/mL | bioavailability [1, 13]: 35% | half-life [1, 13]: 4.23 h | tmax [1, 13]: 3.67 h | Mean concentration (plasma) ([1]; Sprague-Dawley, in vivo, po, 20 mg/kg, 0.5 h): 9947 ng/mL | Mean concentration (plasma) ([1]; Sprague-Dawley, in vivo, po, 20 mg/kg, 1 h): 16427 ng/mL | Mean concentration (plasma) ([1]; Sprague-Dawley, in vivo, po, 20 mg/kg, 2 h): 13217 ng/mL | Mean concentration (plasma) ([1]; Sprague-Dawley, in vivo, po, 20 mg/kg, 4 h): 11693 ng/mL | Mean concentration (plasma) ([1]; Sprague-Dawley, in vivo, po, 20 mg/kg, 8 h): 8990 ng/mL | Mean concentration (plasma) ([1]; Sprague-Dawley, in vivo, po, 20 mg/kg, 24 h): 586 ng/mL | solubility at 1 h (physchem; [14]): 1340 µg/mL (≈ 3810 µM) | solubility at 24 h (physchem; [14]): 1500 µg/mL (≈ 4270 µM) | solubility at 1 h (physchem; FaSSIF, pH 6.5, fassif): 312 µg/mL (≈ 888 µM) | solubility at 24 h (physchem; FaSSIF, pH 6.5, fassif): 103 µg/mL (≈ 293 µM) | solubility at 1 h (physchem; [15]): 806 µg/mL (≈ 2290 µM) | solubility at 24 h (physchem; [15]): 400 µg/mL (≈ 1140 µM) | solubility at 1 h (physchem; FeSSIF, pH 5, fessif): 39 µg/mL (≈ 111 µM) | solubility at 24 h (physchem; FeSSIF, pH 5, fessif): 18 µg/mL (≈ 51.2 µM) | solubility at 1 h (physchem; [16]): 10 µg/mL (≈ 28.5 µM) | solubility at 24 h (physchem; [16]): 4 µg/mL (≈ 11.4 µM) | solubility at 1 h (physchem; pH 4.5 aqueous buffer): 35 µg/mL (≈ 99.6 µM) | solubility at 24 h (physchem; pH 4.5 aqueous buffer): 6 µg/mL (≈ 17.1 µM) | solubility at 1 h (physchem; pH 6.8 aqueous buffer): 394 µg/mL (≈ 1120 µM) | solubility at 24 h (physchem; pH 6.8 aqueous buffer): 51 µg/mL (≈ 145 µM) | Weight loss by TGA ([2]; from r.t. to 120° C.): 1.83% from r.t. to | Total weight loss by TGA [2]: 1.83% total weight

C#CCOc1ccc(/C=C/C(=O)Nc2ccccc2C(=O)[O-])cc1OC.[K+] [Potassium salt]
Mean concentration (plasma) [1, 4]: 24600 ng/mL | Mean concentration (plasma) [1, 5]: 34467 ng/mL | Mean concentration (plasma) [1, 6]: 27200 ng/mL | Mean concentration (plasma) [1, 7]: 17000 ng/mL | Mean concentration (plasma) [1, 8]: 10850 ng/mL | Mean concentration (plasma) [1, 9]: 687 ng/mL | AUCExtr [1, 10]: 1.68% | AUClast [1, 11]: 244.45 µg·h/mL | Cmax [1, 11]: 34733 ng/mL | t1/2 [1, 11]: 4.21 h | tmax [1, 11]: 1.33 h | AUCInf [1, 12]: 248.674 µg·h/mL | F (fraction absorbed, bioavailability) ([1]; single oral dose 20 mg/kg): 51% | Hygroscopicity by DVS [3]: 6.05% | 1 h Solubility (FaSSIF (pH 7.5), 37° C., 1 h): >5140 µg/mL | 24 h Solubility (FaSSIF (pH 7.5), 37° C., 24 h): >5140 µg/mL | 1 h Solubility (FaSSIF, 37° C., 1 h): 218 µg/mL | 24 h Solubility (FaSSIF, 37° C., 24 h): 211 µg/mL | 1 h Solubility (FeSSIF (pH 7.8), 37° C., 1 h): >5140 µg/mL | 24 h Solubility (FeSSIF (pH 7.8), 37° C., 24 h): >5140 µg/mL | 1 h Solubility (FeSSIF, 37° C., 1 h): 23 µg/mL | 24 h Solubility (FeSSIF, 37° C., 24 h): 25 µg/mL | 1 h Solubility (pH 1.2 medium, 37° C., 1 h): 18 µg/mL | 24 h Solubility (pH 1.2 medium, 37° C., 24 h): 7 µg/mL | 1 h Solubility (pH 4.5 medium, 37° C., 1 h): 30 µg/mL | 24 h Solubility (pH 4.5 medium, 37° C., 24 h): 6 µg/mL | 1 h Solubility (pH 6.8 medium, 37° C., 1 h): 111 µg/mL | 24 h Solubility (pH 6.8 medium, 37° C., 24 h): 78 µg/mL | Weight loss by TGA ([2]; from 25° C. to 57° C.): 2.02% from 25 °C to | Weight loss by TGA ([2]; from 57° C. to 140° C.): 4.40% from 57 °C to | Weight loss by TGA ([2]; from r.t. to 120° C.): 5.34% from r.t. to | Total weight loss by TGA [2]: 6.42% total weight

C#CCOc1ccc(/C=C/C(=O)Nc2ccccc2C(=O)O)cc1OC.NC(CO)(CO)CO [Tris salt]
Mean concentration (plasma) [1, 4]: 21300 ng/mL | Mean concentration (plasma) [1, 5]: 36833 ng/mL | Mean concentration (plasma) [1, 6]: 31067 ng/mL | Mean concentration (plasma) [1, 7]: 14467 ng/mL | Mean concentration (plasma) [1, 8]: 11317 ng/mL | Mean concentration (plasma) [1, 9]: 650 ng/mL | AUCExtr [1, 10]: 1.49% | AUClast [1, 11]: 246.642 µg·h/mL | Cmax [1, 11]: 37367 ng/mL | t1/2 [1, 11]: 4.02 h | tmax [1, 11]: 1.33 h | AUCInf [1, 12]: 250.596 µg·h/mL | F (fraction absorbed, bioavailability) ([1]; single oral dose 20 mg/kg): 51% | Hygroscopicity by DVS [3]: 1.61% | Hygroscopicity by DVS ([3]; listed as tris(hydroxymethyl)aminomethane (Tris)): 1.61% | 1 h Solubility (pH 1.2): 1 µg/mL | 24 h Solubility (pH 1.2): 4 µg/mL | 1 h Solubility (pH 4.5): <1 µg/mL | 24 h Solubility (pH 4.5): 2 µg/mL | 1 h Solubility (pH 6.8): 88 µg/mL | 24 h Solubility (pH 6.8): 67 µg/mL | 1 h Solubility (pH 7.5): >5030 µg/mL | 24 h Solubility (pH 7.5): 4641 µg/mL | 1 h Solubility (pH 7.8): >5100 µg/mL | 24 h Solubility (pH 7.8): 4212 µg/mL | Weight loss by TGA ([2]; from 0° C. to 120° C.): 0.65% from 0 °C to | Weight loss by TGA ([2]; from 120° C. to 150° C.): 0.20% from 120 °C to | Weight loss by TGA ([2]; from r.t. to 120° C.): 0.65% from r.t. to | Total weight loss by TGA [2]: 0.85% total weight | Weight loss (TGA) [2]: 0.65%

C#CCOc1ccc(/C=C/C(=O)Nc2ccccc2C(=O)O)cc1OC.CC(C)(C)N [tert-Butylamine (TBA) salt]
Mean concentration (plasma) [1, 4]: 18080 ng/mL | Mean concentration (plasma) [1, 5]: 26967 ng/mL | Mean concentration (plasma) [1, 6]: 29167 ng/mL | Mean concentration (plasma) [1, 7]: 17133 ng/mL | Mean concentration (plasma) [1, 8]: 15433 ng/mL | Mean concentration (plasma) [1, 9]: 918 ng/mL | AUCExtr [1, 10]: 1.83% | AUClast [1, 11]: 287.306 µg·h/mL | Cmax [1, 11]: 32000 ng/mL | t1/2 [1, 11]: 4.18 h | tmax [1, 11]: 1.67 h | AUCInf [1, 12]: 292.817 µg·h/mL | F (fraction absorbed, bioavailability) ([1]; single oral dose 20 mg/kg): 59% | Hygroscopicity by DVS [3]: 1.07% | Hygroscopicity by DVS ([3]; listed as tert-butylamine (TBA)): 1.07% | Hygroscopicity by DVS ([3]; listed as tert-butylamine salt): about 1.07% | Weight loss by TGA ([2]; from 25° C. to 120° C.): 0.94% from 25 °C to | Weight loss by TGA ([2]; from 120° C. to 190° C.): 6.91% from 120 °C to | Weight loss by TGA ([2]; from r.t. to 120° C.): 0.94% from r.t. to | Total weight loss by TGA [2]: 7.85% total weight | Weight loss (TGA) [2]: 0.94% | Weight loss (TGA) ([2]; listed as tert-butylamine salt): about 0.94%
